Source: patent US9902722B2, “Biaryl kinase inhibitors” (BRISTOL-MYERS SQUIBB COMPANY, priority 2014, dated 2018)

The compounds below were run against GST-Xa-hAAK1 (Homo sapiens (Human), UniProt Q2M2I8) (assay: AAK1 Kinase Assay). Conditions: bacterially expressed GST-Xa-hAAK1 3.5 nM; ATP 22 μM; peptide substrate 1.5 μM; 3 hours at room temperature; Caliper LabChip 3000.
Assay type: biochemical
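Note: each compound tested across an eleven-point concentration series, with IC50 obtained through non-linear regression fitting.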
Procedure: The assays were performed in U-bottom 384-well plates. […] The reactions were initiated by the combination of bacterially expressed, GST-Xa-hAAK1 with substrates and test compounds. The reactions were incubated at room temperature for 3 hours and terminated by adding 60 μl of 35 mM EDTA buffer to each sample. […] Compounds were dissolved at 10 mM in dimethylsulfoxide (DMSO) and evaluated at eleven concentrations. IC50 values were derived by non-linear regression analysis.

Sequence of GST-Xa-hAAK1 (Q2M2I8 whole entry): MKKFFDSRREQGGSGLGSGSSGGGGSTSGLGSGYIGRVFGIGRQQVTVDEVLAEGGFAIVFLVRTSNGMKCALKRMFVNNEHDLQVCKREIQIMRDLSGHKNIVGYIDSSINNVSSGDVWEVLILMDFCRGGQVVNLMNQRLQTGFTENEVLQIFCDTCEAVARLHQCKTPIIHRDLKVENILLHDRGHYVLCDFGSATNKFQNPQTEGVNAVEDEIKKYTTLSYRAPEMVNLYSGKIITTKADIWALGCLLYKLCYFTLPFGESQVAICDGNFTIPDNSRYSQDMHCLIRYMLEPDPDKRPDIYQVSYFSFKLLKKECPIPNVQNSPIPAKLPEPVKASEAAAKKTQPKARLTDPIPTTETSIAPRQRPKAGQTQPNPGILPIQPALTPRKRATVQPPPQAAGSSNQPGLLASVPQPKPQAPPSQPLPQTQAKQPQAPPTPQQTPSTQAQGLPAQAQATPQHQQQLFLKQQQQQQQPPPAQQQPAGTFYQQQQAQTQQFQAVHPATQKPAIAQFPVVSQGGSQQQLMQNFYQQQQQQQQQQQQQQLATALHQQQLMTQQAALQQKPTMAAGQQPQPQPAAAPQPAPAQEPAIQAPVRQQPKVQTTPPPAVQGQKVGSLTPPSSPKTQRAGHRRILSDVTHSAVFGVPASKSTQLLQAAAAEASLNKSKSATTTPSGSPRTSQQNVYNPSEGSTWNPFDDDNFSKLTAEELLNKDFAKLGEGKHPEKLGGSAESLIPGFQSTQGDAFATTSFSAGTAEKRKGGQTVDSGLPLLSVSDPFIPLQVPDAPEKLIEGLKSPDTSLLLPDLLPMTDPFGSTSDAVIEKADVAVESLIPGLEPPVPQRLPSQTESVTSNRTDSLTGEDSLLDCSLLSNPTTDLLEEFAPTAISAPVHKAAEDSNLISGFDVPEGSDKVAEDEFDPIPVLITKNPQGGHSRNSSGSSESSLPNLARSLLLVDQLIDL

SMILES | IC50 [nM]
COC(=O)Nc1cc(-c2ccc(OCC(C)(N)CC(C)C)c(C)c2C)ccn1 (stereo not shown) [Example 31, methyl (4-(4-((2-amino-2,4-dimethylpentyl)oxy)-2,3-dimethylphenyl)pyridin-2-yl)carbamate] | 4.5
COC(=O)Nc1cc(-c2cc(C(F)F)c(OC[C@@](N)(CF)CC(C)C)cn2)ccn1 [Example 182, (R)-methyl (5-((2-amino-2-(fluoromethyl)-4-methylpentyl)oxy)-4-(difluoromethyl)-[2,4′-bipyridin]-2′-yl)carbamate] | 8.7
Cc1cc(-c2cc(C(F)F)c(OC[C@@](C)(N)CC(C)C)cn2)cnn1 [Example 162, (S)-1-((4-(difluoromethyl)-6-(6-methylpyridazin-4-yl)pyridin-3-yl)oxy)-2,4-dimethylpentan-2-amine] | 530
CC(C)CC(C)(N)COc1c(F)cc(-c2ccnc3ccccc23)cc1Cl (stereo not shown) [Example 75, 1-(2-chloro-6-fluoro-4-(quinolin-4-yl)phenoxy)-2,4-dimethylpentan-2-amine] | 34
CC(C)C[C@](C)(N)COc1ncc(-c2ccnc3ccncc23)cc1C#N [Example 80, (S)-2-((2-amino-2,4-dimethylpentyl)oxy)-5-(1,6-naphthyridin-4-yl)nicotinonitrile] | 19
Cc1cc(-c2cc(C)c(OC[C@@](C)(N)CC(C)C)cn2)ccn1 [Example 228, (S)-1-((2′,4-dimethyl-[2,4′-bipyridin]-5-yl)oxy)-2,4-dimethylpentan-2-amine] | 22
Cc1cc(-c2cc(C(F)F)c(OC[C@@](N)(CF)CC(C)C)cn2)ccn1 [Example 188, (R)-1-((4-(difluoromethyl)-2′-methyl-[2,4′-bipyridin]-5-yl)oxy)-2-(fluoromethyl)-4-methylpentan-2-amine] | 92
CC(=O)Nc1cccc(-c2ccc(OCC(C)(N)CC(C)C)c(C)c2)c1 (stereo not shown) [Example 250, N-(4′-((2-amino-2,4-dimethylpentyl)oxy)-3′-methyl-[1,1′-biphenyl]-3-yl)acetamide] | 659
CC(C)C[C@H](N)COc1ccc(-c2ccnc3ccccc23)cc1-c1ccno1 [Example 110, (S)-1-(2-(isoxazol-5-yl)-4-(quinolin-4-yl)phenoxy)-4-methylpentan-2-amine] | 3.5
COC(=O)Nc1cc(-c2ccc(OC[C@@](C)(N)CC(C)C)c(CN(C)C)c2)ccn1 [Example 112, (S)-methyl (4-(4-((2-amino-2,4-dimethylpentyl)oxy)-3-((dimethylamino)methyl)phenyl)pyridin-2-yl)carbamate] | 970
Cc1cc(-c2cnc(OC[C@@](C)(N)CC(C)C)c(C(F)(F)F)c2)ccn1 [Example 221, (S)-2,4-dimethyl-1-((2′-methyl-5-(trifluoromethyl)-[3,4′-bipyridin]-6-yl)oxy)pentan-2-amine] | 4.1
COC(=O)Nc1cc(-c2ccc(OC[C@@](C)(N)CC(C)C)c(C)n2)c(F)cn1 [Example 155, (S)-methyl (5-((2-amino-2,4-dimethylpentyl)oxy)-5′-fluoro-6-methyl-[2,4′-bipyridin]-2′-yl)carbamate] | 57
CC(=O)Nc1cc(-c2cc(F)c(OC[C@@H](N)CC(C)C)c(Cl)c2)ccn1 [Example 10, (S)—N-(4-(4-((2-amino-4-methylpentyl)oxy)-3-chloro-5-fluorophenyl)pyridin-2-yl)acetamide] | 10
Cc1cc(-c2ccc(OC[C@@](C)(N)CC(C)C)c(C)n2)ccn1 [Example 65, (S)-1-((2′,6-dimethyl-[2,4′-bipyridin]-5-yl)oxy)-2,4-dimethylpentan-2-amine] | 42
Cc1cc(-c2ccc(OC[C@@H](N)CC(C)C)c(-c3ccno3)c2)ccn1 [Example 18, (S)-1-(2-(isoxazol-5-yl)-4-(2-methylpyridin-4-yl)phenoxy)-4-methylpentan-2-amine] | 5
Cc1cc(-c2ccc(OC[C@@](C)(N)CC(C)C)c(C(F)F)n2)cnn1 [Example 163, (S)-1-((2-(difluoromethyl)-6-(6-methylpyridazin-4-yl)pyridin-3-yl)oxy)-2,4-dimethylpentan-2-amine] | 1100
COC(=O)Nc1cc(-c2cnc(OC[C@@](C)(N)CC(C)C)nc2)ccn1 [Example 211, (S)-methyl (4-(2-((2-amino-2,4-dimethylpentyl)oxy)pyrimidin-5-yl)pyridin-2-yl)carbamate] | 491
CC(C)C[C@](C)(N)COc1cnc(-c2ccnc3ccc(Cl)cc23)cc1Cl [Example 239, (S)-1-((4-chloro-6-(6-chloroquinolin-4-yl)pyridin-3-yl)oxy)-2,4-dimethylpentan-2-amine] | 0.39

More lines, in order of falling IC50, values ahead:

IC50 [nM] | SMILES
3 | Cc1cc(-c2ccnc3cc(C#N)ccc23)cnc1OC[C@@](C)(N)CC(C)C [Example 96, (S)-4-(6-((2-amino-2,4-dimethylpentyl)oxy)-5-methylpyridin-3-yl)quinoline-7-carbonitrile]
2.6 | COC(=O)Nc1cc(-c2cc(C)c(OC[C@@](C)(N)CC(C)C)cn2)ccn1 [Example 68, (S)-methyl (5-((2-amino-2,4-dimethylpentyl)oxy)-4-methyl-[2,4′-bipyridin]-2′-yl)carbamate]
2.6 | Cc1cc(-c2ccc(OC[C@@](C)(N)CC(C)C)c(C)c2)ccn1 [Example 90, (S)-2,4-dimethyl-1-(2-methyl-4-(2-methylpyridin-4-yl)phenoxy)pentan-2-amine]
2.2 | CC(C)C[C@](C)(N)COc1ccc(-c2ccnc3[nH]ccc23)cc1C(F)(F)F [Example 84, (S)-1-(4-(1H-pyrrolo[2,3-b]pyridin-4-yl)-2-(trifluoromethyl)phenoxy)-2,4-dimethylpentan-2-amine]
1.8 | CC(C)C[C@](C)(N)COc1ccc(-c2ccnc3ccccc23)nc1Cl [Example 83, (S)-1-((2-chloro-6-(quinolin-4-yl)pyridin-3-yl)oxy)-2,4-dimethylpentan-2-amine]
1.7 | Cc1cc(-c2ccnc3cc(F)ccc23)cnc1OC[C@@](C)(N)CC(C)C [Example 76, (S)-1-((5-(7-fluoroquinolin-4-yl)-3-methylpyridin-2-yl)oxy)-2,4-dimethylpentan-2-amine]
1.4 | COC(=O)Nc1cc(-c2ccc(OCC(C)(N)CC(C)C)c(C)c2)ccn1 (stereo not shown) [Example 30, methyl (4-(4-((2-amino-2,4-dimethylpentyl)oxy)-3-methylphenyl)pyridin-2-yl)carbamate]
1.2 | CC(C)C[C@](C)(N)COc1ncc(-c2ccnc3ccc(F)cc23)cc1C(F)F [Example 200, (S)-1-((3-(difluoromethyl)-5-(6-fluoroquinolin-4-yl)pyridin-2-yl)oxy)-2,4-dimethylpentan-2-amine]
1.1 | COC(=O)Nc1cc(-c2ccc(OC[C@@H](N)CC(C)C)c(F)c2)ccn1 [Example 13, (S)-methyl (4-(4-((2-amino-4-methylpentyl)oxy)-3-fluorophenyl)pyridin-2-yl)carbamate]
1 | CC(C)C[C@](C)(N)COc1ncc(-c2ccnc3cc(F)cc(F)c23)cc1C(F)(F)F [Example 218, (S)-1-((5-(5,7-difluoroquinolin-4-yl)-3-(trifluoromethyl)pyridin-2-yl)oxy)-2,4-dimethylpentan-2-amine]
1 | CC(=O)Nc1cc(-c2ccc(OC[C@@](C)(N)CC(C)C)c(OC(F)(F)F)c2)ccn1 [Example 25, (S)—N-(4-(4-((2-amino-2,4-dimethylpentyl)oxy)-3-(trifluoromethoxy)phenyl)pyridin-2-yl)acetamide]
0.92 | CC(C)C[C@](C)(N)COc1cnc(-c2ccnc3ccc(C(F)(F)F)cc23)cc1C(F)F [Example 133]
0.82 | CC(C)C[C@](C)(N)COc1cnc(-c2ccnc3cc(F)ccc23)cc1C(F)F [Example 131, (S)-1-((4-(difluoromethyl)-6-(7-fluoroquinolin-4-yl)pyridin-3-yl)oxy)-2,4-dimethylpentan-2-amine]
0.67 | COC(=O)Nc1cc(-c2ccc(OCC(C)(N)CC(C)C)c(Cl)c2)ccn1 (stereo not shown) [Example 29, methyl (4-(4-((2-amino-2,4-dimethylpentyl)oxy)-3-chlorophenyl)pyridin-2-yl)carbamate]
0.63 | COC(=O)Nc1cc(-c2ccc(OC[C@@](C)(N)CC(C)C)c(C(F)F)c2)ccn1 [Example 24, (S)-methyl (4-(4-((2-amino-2,4-dimethylpentyl)oxy)-3-(difluoromethyl)phenyl)pyridin-2-yl)carbamate]
0.51 | Cc1cc(-c2cc(C(F)F)c(OC[C@@](C)(N)CC(C)C)cn2)ccn1 [Example 122, (S)-1-((4-(difluoromethyl)-2′-methyl-[2,4′-bipyridin]-5-yl)oxy)-2,4-dimethylpentan-2-amine]
0.51 | COC(=O)Nc1cc(-c2cc(C(F)F)c(OC[C@@](C)(N)CC(C)C)cn2)ccn1 [Example 120, (S)-methyl (5-((2-amino-2,4-dimethylpentyl)oxy)-4-(difluoromethyl)-[2,4′-bipyridin]-2′-yl)carbamate]
0.47 | CC(=O)Nc1cc(-c2ccc(OC[C@@H](N)CC(C)C)c(OC(F)(F)F)c2)ccn1 [Example 6, (S)—N-(4-(4-((2-amino-4-methylpentyl)oxy)-3-(trifluoromethoxy)phenyl)pyridin-2-yl)acetamide]
0.32 | COC(=O)Nc1cc(-c2ccc(OC[C@@](C)(N)CC(C)C)c(C3CC3)c2)ccn1 [Example 33, (S)-methyl (4-(4-((2-amino-2,4-dimethylpentyl)oxy)-3-cyclopropylphenyl)pyridin-2-yl)carbamate]
0.3 | CC(C)C[C@](C)(N)COc1cnc(-c2ccnc3ccccc23)cc1C(F)F [Example 121, (S)-1-((4-(difluoromethyl)-6-(quinolin-4-yl)pyridin-3-yl)oxy)-2,4-dimethylpentan-2-amine]
0.23 | CC(C)C[C@](C)(N)COc1ncc(-c2ccnc3ccccc23)cc1C(F)F [Example 204, (S)-1-((3-(difluoromethyl)-5-(quinolin-4-yl)pyridin-2-yl)oxy)-2,4-dimethylpentan-2-amine]
0.07 | CC(C)C[C@](C)(N)COc1ccc(-c2ccnc3ccccc23)cc1C1CC1 [Example 74, (S)-1-(2-cyclopropyl-4-(quinolin-4-yl)phenoxy)-2,4-dimethylpentan-2-amine]
